# In ChEMBL document CHEMBL2321716, “Exploring a new frontier in cancer treatment: targeting the ubiquitin and ubiquitin-like activating enzymes” (J Med Chem, 2013):
# Experiments:
# [1] = Inhibition of N-terminal GST-tagged human UAE-catalyzed UAE-Ub thioester intermediate formation expressed in HI5 insect cells after 30 mins by immunoblotting analysis
# [2] = Inhibition of N-terminal GST-tagged human UAE-catalyzed [32P]-AMP:[a-32P]-ATP exchange expressed in HI5 insect cells by TLC analysis
# [3] = Inhibition of mouse recombinant His6-tagged UAE-catalyzed UAE-Ub thioester intermediate formation expressed in insect cells by SDS-PAGE analysis
# [4] = Cytotoxicity against human U226 cells assessed as induction of cell death after 72 hrs by Alamar blue assay; type: functional; settings: U226, 72 h, read-out: LD50 (the source's name)
# [5] = Cytotoxicity against human KMS11 cells assessed as induction of cell death after 72 hrs by Alamar blue assay; type: functional; settings: KMS-11, 72 h, read-out: LD50 (the source's name)
# [6] = Cytotoxicity against human Leukemia cells assessed as induction of cell death after 72 hrs by Alamar blue assay; type: functional; settings: read-out: LD50 (the source's name)
# LP-1 = assay: Cytotoxicity against human LP-1 cells assessed as induction of cell death after 72 hrs by Alamar blue assay; type: functional; settings: LP-1, 72 h, read-out: LD50 (the source's name)
# [7] = Inhibition of GST-tagged human recombinant UAE-catalyzed UAE-Ub thioester intermediate formation after 30 mins by fluorescence assay
# T47D = assay: Cytotoxicity against human T47D cells assessed as induction of cell death after 72 hrs by Alamar blue assay; type: functional; settings: read-out: LD50 (the source's name)
# HeLa = assay: Cytotoxicity against human HeLa cells assessed as induction of cell death after 72 hrs by Alamar blue assay; type: functional; settings: read-out: LD50 (the source's name)
# [8] = Cytotoxicity against human MDA468 cells assessed as induction of cell death after 72 hrs by Alamar blue assay; type: functional; settings: MDA-MB-468, 72 h, read-out: LD50 (the source's name)
# FaDu = assay: Cytotoxicity against human FADU cells assessed as induction of cell death after 72 hrs by Alamar blue assay; type: functional; settings: read-out: LD50 (the source's name)
# DU-145 = assay: Cytotoxicity against human DU145 cells assessed as induction of cell death after 72 hrs by Alamar blue assay; type: functional; settings: DU-145, 72 h, read-out: LD50 (the source's name)
# HT-29 = assay: Cytotoxicity against human HT-29 cells assessed as induction of cell death after 72 hrs by Alamar blue assay; type: functional; settings: HT-29, 72 h, read-out: LD50 (the source's name)
# [9] = Cytotoxicity against human OVACR3 cells assessed as induction of cell death after 72 hrs by Alamar blue assay; type: functional; settings: OVACR3, 72 h, read-out: LD50 (the source's name)
# PPC-1 = assay: Cytotoxicity against human PPC1 cells assessed as induction of cell death after 72 hrs by Alamar blue assay; type: functional; settings: PPC-1, 72 h, read-out: LD50 (the source's name)
# [10] = Inhibition of UAE (unknown origin)-catalyzed UAE-Ub intermediate formation; parameters: species or system Homo sapiens
smiles,measurement,setting,value
CCOC(=O)c1ccc(N2NC(=O)/C(=C/c3ccc([N+](=O)[O-])o3)C2=O)cc1,IC50,[1],< 10 µM
same,IC50,[2],6.4 µM
same,IC50,[3],< 10 µM
O=C1NN(c2ccc(F)c(Cl)c2)C(=O)/C1=C\c1ccc([N+](=O)[O-])o1,CC50,[4],≤ 3 µM
same,CC50,[5],≤ 3 µM
same,CC50,[6],< 10 µM
same,CC50,LP-1,≤ 3 µM
same,IC50,[7],20 µM
same,CC50,T47D,15 µM
same,CC50,HeLa,15 µM
same,CC50,[8],15 µM
same,CC50,FaDu,15 µM
same,CC50,DU-145,15 µM
same,CC50,HT-29,15 µM
same,CC50,[9],15 µM
same,CC50,PPC-1,15 µM
CC(C)(O)/C=C/[C@@]12[C@H]3[C@@H](O)[C@@H]4O[C@@H]4[C@]1(O)OC(C)(C)[C@@H]2C=C1C(=O)[C@H]2O[C@H]2[C@H](O)[C@H]13 [PANEPOPHENANTHRIN],IC50,[10],17 µg/mL
